Biological target: Tyrosine-protein kinase BTK (Homo sapiens, UniProt Q06187)
Test: Kinase Assay: Measurements were performed in a reaction volume of 15 μL using 384-well assay plates. Kinase enzyme, inhibitor, ATP and 1 μM peptide substrate were incubated in a reaction buffer compose of Hepes 50 mM (pH7.0), NaN3 0.02%, BSA 0.01%, Orthocanadate 0.1 mM. After one hour, the kinase reaction was quenched by the addition of […] antibody and XL-665 in 1×Detection buffer containing 60 mM EDTA (Cisbio), and the mixture was allowed to incubate for one hour. The HTRF signal was measured on a multimode plate reader (EnVision® Multilabel Reader, Perkin Elmer) with an excitation wavelength (λEx) of 330 nm and detection wavelengths (λEm) of 615 and 665 nm. Activity was determined by the ratio of the fluorescence at 665 nm to that at 615 nm. For each compound, enzyme activity as measured at various concentrations of compound, Negative control reactions were performed in the absence of inhibitor in two replicates and eight no enzyme controls.

Sequence of Tyrosine-protein kinase BTK (Q06187 whole entry): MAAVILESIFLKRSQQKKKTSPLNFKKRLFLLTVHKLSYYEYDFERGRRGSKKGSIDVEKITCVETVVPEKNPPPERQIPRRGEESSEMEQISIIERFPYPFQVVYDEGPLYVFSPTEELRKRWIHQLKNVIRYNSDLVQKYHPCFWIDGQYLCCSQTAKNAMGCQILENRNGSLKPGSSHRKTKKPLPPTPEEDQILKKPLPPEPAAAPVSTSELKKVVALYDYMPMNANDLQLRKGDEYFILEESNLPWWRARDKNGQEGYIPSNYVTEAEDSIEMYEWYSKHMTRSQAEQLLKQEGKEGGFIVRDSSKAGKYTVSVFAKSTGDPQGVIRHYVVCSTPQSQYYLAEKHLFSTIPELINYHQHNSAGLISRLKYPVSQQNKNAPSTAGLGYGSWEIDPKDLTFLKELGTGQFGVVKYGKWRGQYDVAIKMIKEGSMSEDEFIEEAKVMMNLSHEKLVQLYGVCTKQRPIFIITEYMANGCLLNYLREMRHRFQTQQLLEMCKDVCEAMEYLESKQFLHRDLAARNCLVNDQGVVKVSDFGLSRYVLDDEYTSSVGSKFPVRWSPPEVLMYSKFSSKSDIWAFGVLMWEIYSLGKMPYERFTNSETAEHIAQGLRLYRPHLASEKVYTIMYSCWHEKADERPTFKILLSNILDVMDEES

IC50, < 10 nM:
C=CC(=O)N1CCC[C@@H](n2nc(-c3ccc(Oc4cccc(OC)c4Cl)cc3)c3cncc(OCC)c32)C1
C=CC(=O)N1CCC[C@@H](n2nc(-c3ccc(Oc4cccc(OC)c4Cl)cc3)c3cncc(OC)c32)C1
C=CC(=O)N1CCC[C@@H](n2nc(-c3ccc(Oc4cccc(OC)c4Cl)cc3)c3cncc(OC4CCOC4)c32)C1 (some centres not stated)
C=CC(=O)N1CCC[C@@H](n2nc(-c3ccc(Oc4cccc(OC)c4Cl)cc3)c3cncc(OCCC)c32)C1
C=CC(=O)N1CCC[C@@H](n2nc(-c3ccc(Oc4cccc(OC)c4Cl)cc3)c3cncc(OCCCC)c32)C1
C=CC(=O)N1CCC[C@@H](n2nc(-c3ccc(Oc4cccc(OC)c4Cl)cc3)c3cncc(OC(C)C)c32)C1
C=CC(=O)N1CC[C@@H](n2nc(-c3ccc(Oc4cccc(OC)c4Cl)cc3)c3cncc(OCC)c32)C1
